Assay results as given in patent publication US7034053B2, “Phenethanolamine derivatives, compositions, and their use as agonists at atypical beta-adrenoreceptors” (SmithKline Beecham Corporation, priority 2001, dated 2006).

| melting point | Structure (SMILES) |
| --- | --- |
| 250 °C (dec.) | O=C(O)c1ccoc1-c1cccc(NCCNC[C@H](O)c2cccc(Cl)c2)c1 [Example 2, 2-(3-{[2-(3-Chlorophenyl)-2R-hydroxyl-ethylamino]ethylamino}phenyl)furan-3-carboxylic acid] |
| 275 °C (dec.) | O=C(O)c1ccsc1-c1cccc(NCCNC[C@H](O)c2cccc(Cl)c2)c1 [Example 5, 2-(3-{[2-(3-Chlorophenyl)-2R-hydroxyl-ethylamino]ethylamino}phenyl)thiophene-3-carboxylic acid] |
